Assays:
[1] = tested on: PBMC from peanut allergic and non-allergic donors (IFNγ production); test: IFNγ ELISPOT with individual peptides after 14-day in vitro expansion (epitope mapping); format: cell-based, human; conditions: SFC per 10^6 PBMC, individual peptide 10 μg/ml, 24 h, after 14-day culture; for IFNg Average SFC (allergics): allergic donors; for IFNg Average SFC (controls): non-allergic controls
Description: (§1) For in vitro expansions, PBMCs were thawed and cultured in RPMI 1640 (Omega Scientific, Tarzana, CA) supplemented with 5% human AB serum (Gemini Bio-Products, West Sacramento, CA) at a density of 2 × 10^6 cells per mL in 24-well plates (Corning, San Diego, CA) and stimulated with peanut extract (10 μg/ml) or peptide pools at 5 μg/mL. Cells were kept at 37°C, 5% CO2, and additional IL-2 (10 U/mL; ThermoFisher, San Diego, CA) was added every 3 days after initial antigenic stimulation. On day 14, cells were harvested and reactivity against peanut extract (10 μg/ml), peanut specific peptide pools (5 μg/ml) and individual peptides (10 μg/ml) was assessed. The production of IL-5 and IFNγ post-stimulation with peanut extract was analyzed in dual ELISPOT assays. Flat-bottom 96-well nitrocellulose plates (Millipore, Bedford, MA) were prepared according to the manufacturer’s instructions and coated with either 10 μg/ml of both anti-human IL-5 (clone TRFK5) and anti-human IFNγ (clone 1-D1K) or anti-human IL-10 (clone 9D7) and anti-human IL-17 (clone MT44.6) (Mabtech, Cincinnati, OH). PBMC were then incubated at a density of 1 × 10^5/well either with peptide pools (5 μg/ml) or individual peptides (10 μg/ml), peanut extract (10 μg/ml), PHA (10 μg/ml), or medium containing 0.25% DMSO (corresponding to the highest percentage of DMSO in the pools/peptides condition) as a control. After 24 h, cells were removed, and plates were incubated with a cocktail containing either biotinylated anti-human IL-5 (1:50 dilution) (clone 5A10) and horseradish peroxidase (HRP)-conjugated anti-human IFNγ (1:200 dilution) (clone 7-B6-1) or biotinylated anti-human IL-17 (1:200 dilution) (clone MT504) anti-human alkaline phosphatase (AP)-conjugated IL-10 (1:200 dilution) (clone 12G8) (Mabtech, Cincinnati, OH) at 37°C. After 2 h, spots corresponding to the biotinylated IL-5 Ab were developed by incubation with Alkaline-phosphatase-Complex (Vector Laboratories, Burlingame, CA) and then visualized by applying the Vector Blue Alkaline Phosphatase Substrate Kit III (Vector Laboratories, Burlingame, CA) according to the manufacturer’s instructions. Spots corresponding to the HRP-conjugated anti-human IFNγ Ab were visualized by incubation with 3-amino-9-ethylcarvazole solution (Sigma-Aldrich, St. Louis, MO). Spots were counted by computer-assisted image analysis (KS-ELISPOT reader, Zeiss, Munich). Each assay was performed in triplicate. The level of statistical significance was determined with a Student t test using the mean of triplicate values of the response against relevant pools or individual peptides versus the response against the DMSO control. Criteria for response positivity were 20 spot-forming cells (SFCs)/10^6 PBMC, p ≤ 0.05, and a stimulation index (SI) ≥ 2. SFCs are measured per 10^5 PBMC, subsequently readings are background subtracted and multiplied by 10 to be expressed as SFC per million PBMC. T cell epitope mapping was performed to determine epitopes from the major peanut allergens Ara h 1, 2 and 3, recognized by peanut allergic (n = 11) and non-allergic (n = 10) donors. As these studies were performed with samples obtained from pediatric patients, available blood sample volumes were limiting. To overcome this limitation, small pools of predicted peptides matched to the HLA molecules expressed in each donor were tested. For each donor, class II binding affinity predictions were performed using algorithms available through the IEDB (www.iedb.org)[18], to identify the top 6 predicted binders for each of the alleles expressed at the four HLA class II loci (DRB1, DRB3/4/5, DQB1, and DPB1). Accordingly, the screening load for each donor was reduced from 400 peptides to a maximum of 48 peptides (6 peptides x ≤8 class II molecules, less for homozygous donors). The six top predicted peptides for each allele were used to generate allele-specific pools, which were in turn used to expand peanut-specific cells in vitro. […]

[2] = tested on: PBMC from peanut allergic and non-allergic donors (IL-5 production); test: IL-5 ELISPOT with individual peptides after 14-day in vitro expansion (epitope mapping); format: cell-based, human; conditions: SFC per 10^6 PBMC, individual peptide 10 μg/ml, 24 h, after 14-day culture; for IL-5 Average SFC (allergics): allergic donors; for IL-5 Average SFC (controls): non-allergic controls
Description: as §1

Sequence | IFNg Average SFC (allergics) [1] [SFC] | IFNg Average SFC (controls) [1] [SFC] | IL-5 Average SFC (allergics) [2] [SFC] | IL-5 Average SFC (controls) [2] [SFC]
VTVRGGLRILSPDRK [Ara h 3 15-mer, position 301] | 19 | 93 | 196 | 44
SSELHLLGFGINAEN [Ara h 1 15-mer, position 523] | 0 | 0 | 492 | 0
SNREVRRYTARLKEG [Ara h 1 15-mer, position 493] | 42 | 108 | 20 | 527
ALFLLAAHASARQQW [Ara h 2 15-mer, position 11] | 0 | 545 | 11 | 270
QSDNFEYVAFKTDSR [Ara h 3 15-mer, position 466; P19 pool member] | 0 | 373 | 164 | 123
FCVLVLGASSVTFRQ [Ara h 3 15-mer, position 11] | 22 | 0 | 0 | 28
RCTKLEYDPRCVYDT [Ara h 1 15-mer, position 61] | 0 | 820 | 195 | 467
KAMVIVVVNKGTGNL [Ara h 1 15-mer, position 451] | 42 | 28 | 108 | 0
ILVAPALFLLAAHAS [Ara h 2 15-mer, position 6] | 0 | 108 | 0 | 40
IPSGFISYILNRHDN [Ara h 1 15-mer, position 266] | 0 | 0 | 78 | 180
EQGAIVTVRGGLRIL [Ara h 3 15-mer, position 296] | 142 | 252 | 78 | 205
LLGILVLASVSATQA [Ara h 1 15-mer, position 11] |  | 145 |  | 0
FVPHYTLNAHTIVVA [Ara h 3 15-mer, position 386] | 117 | 94 | 163 | 70
SNAPQEIFIQQGRGY [Ara h 3 15-mer, position 86] |  | 0 |  | 45
RLKEGDVFIMPAAHP [Ara h 1 15-mer, position 503] |  | 83 |  | 120
NHRIVQIEARPNTLV [Ara h 1 15-mer, position 211] |  | 303 |  | 427
GRIRVLQRFDQRSKQ [Ara h 1 15-mer, position 191; P19 pool member] | 49 | 197 | 253 | 66
GSNIFSGFAQEFLQH [Ara h 3 15-mer, position 237] |  | 0 |  | 29

Sequence | IFNg Average SFC (allergics) [1] [SFC] | IFNg Average SFC (controls) [1] [SFC] | IL-5 Average SFC (allergics) [2] [SFC] | IL-5 Average SFC (controls) [2] [SFC]
GHALRIPSGFISYIL [Ara h 1 15-mer, position 261] | 0 | 0 | 0 | 1080
GGNIFSGFTPEFLAQ [Ara h 3 15-mer, position 261] | 62 | 0 | 0 | 141
FQNLQNHRIVQIEAK [Ara h 1 15-mer, position 206; P19 pool member] | 0 | 0 | 74 | 0
AFQVDDRQIVQNLRG [Ara h 3 15-mer, position 276] | 0 | 0 | 85 | 10
DADNILVIQQGQATV [Ara h 1 15-mer, position 231] | 0 | 37 | 25 | 0
KAMVIVVINKGTGNL [Ara h 1 15-mer, position 451] |  | 43 |  | 53
NPINLREGEPDLSNN [Ara h 1 15-mer, position 396] |  | 240 |  | 457
QEFLRYQQQQGSRPH [Ara h 3 15-mer, position 206] | 13 | 61 | 0 | 144
TIVVALNGRAHVQVV [Ara h 3 15-mer, position 396] | 415 | 548 | 148 | 567
LLGILVLASVSATHA [Ara h 1 15-mer, position 11] |  | 80 |  | 0
GLRILSPDEEDESSR [Ara h 3 15-mer, position 281] |  | 293 |  | 403
AGVALSRLVLRRNAL [Ara h 3 15-mer, position 66] |  | 603 |  | 753
SIIYALRGRAHVQVV [Ara h 3 15-mer, position 421; P19 pool member] | 89 | 249 | 400 | 358
QRSRQFQNLQNHRIV [Ara h 1 15-mer, position 201] | 0 | 102 | 0 | 216
FQNLQNHRIVQIEAR [Ara h 1 15-mer, position 206] | 13 | 0 | 64 | 0
LAGENSVIDNLPEEV [Ara h 3 15-mer, position 486; P19 pool member] | 0 | 0 | 306 | 23
NNRKSFNLDEGHALR [Ara h 1 15-mer, position 251] |  | 55 |  | 82
